Experimental data published in patent US4003915A, “Tricyclic imines” (Hoffmann-La Roche Inc., priority 1970, dated 1977).

What was measured:
anticholinergic activity = details: in words
antidepressant activity = details: in words
anti-Parkinson activity = details: in words
[1] = anticonvulsant properties (no test described); details: in words
[2] = LD50 in mice on oral administration (toxicity); details: mouse, in vivo
antitussive activity = details: in words
diuretic activity = details: in words

Row | Compound | anticholinergic activity (anticholinergic activity) | antidepressant activity (antidepressant activity) | activity against Parkinsonism (anti-Parkinson activity) | LD50 [2] | further results
1 | CN(C)CCN=C1c2ccccc2CCc2ccc(Cl)cc21 [3-chloro-N-(2-dimethylamino-ethyl)-10,11-dihydro5H-dibenzo[a,d]cyclohepten-5-imine] | strong | strong | very active |  | 
2 | CN(C)CCN=C1c2ccccc2CCc2ccccc21 [N-(2-dimethylamino-ethyl)-10,11-dihydro-5H-dibenzo[a,d]cyclohepten-5-imine] |  |  | very active |  | central and peripheral anticholinergic activity (anticholinergic activity; central and peripheral): strong
3 | CN(C)CCN=C1c2ccccc2CCc2c(Br)cccc21 [1-bromo-N-(2-dimethylamino-ethyl)-10,11-dihydro-5H-dibenzo[a,d]cyclohepten-5-imine] |  |  |  | ~750 mg/kg | anticonvulsant properties [1]: strong
4 | CCN(CC)CCN=C1c2ccccc2CCc2ccc(Cl)cc21 [3-chloro-N-(2-diethylamino-ethyl)-10,11-dihydro-5H-dibenzo[a,d]cyclohepten-5-imine] |  |  |  |  | antitussive activity (antitussive activity): strong
5 | CN(C)CCN=C1c2ccccc2CCc2c(Cl)cccc21 [1-chloro-N-(2-dimethylamino-ethyl)-10,11-dihydro-5H-dibenzo[a,d]cyclohepten-5-imine] | very weak | acts principally as an antidepressant |  | ~750 mg/kg | 
6 | CCN(CC)CCN=C1c2ccccc2CCc2c(Cl)cccc21 [1-chloro-N-(2-diethylamino-ethyl)-10,11-dihydro-5H-dibenzo[a,d]cyclohepten-5-imine] |  |  |  |  | diuretic activity (diuretic activity): strong
